# Read-outs that look alike come from different tables or passages of the source.
# How the values were obtained:
# [1] = brain penetration in mouse brain metastatic tumor model (LC-MS, MALDI IMS); type: in vivo, mice; conditions: for Bulk Brain Homogenate Avg, adjusted free concentration / Bulk Brain Homogenate Avg, total concentration: LC-MS; for Bulk Brain Homogenate Avg, adjusted free concentration / Bulk Brain Homogenate Avg, total concentration / concentration at 2 h: 2 hr post final dose; for concentration at 2 h: plasma, po QD 5 days, niraparib 35 mg/kg, olaparib 50 mg/kg, read-out: Terminal Plasma Avg, total concentration
# Description: Female mice (CrTac:NCr-Foxnlnu; 6 w/o) received 2.5E5 luciferase transfected human breast cancer line (MDA 231-BRM2-831) via intracardiac injection. Mice were imaged twice/week using bioluminescence imaging (BLI) to monitor tumor growth. […] Tissue collected between each imaging plane was homogenized for LC-MS bioanalysis.
# [2] = brain penetration in healthy Rhesus macaque monkeys (LC-MS, MALDI IMS); type: in vivo; conditions: for Bulk Brain Homogenate, adjusted free concentration / Bulk Brain Homogenate, total concentration: LC-MS; for Terminal CSF / Terminal Plasma, adjusted free concentration: at necropsy; for Kp, uu Brain/Plasma: from bulk brain homogenate and terminal plasma free concentrations
# Procedure: Pre-dose blood was collected daily and terminal blood, cerebrospinal fluid (CSF), and brain tissue was collected at necropsy. […] Blood, CSF, and bulk homogenates of brain tissue were analyzed by LC-MS bioanalysis.
compound,measurement,setting,value
O=C(c1cc(Cc2n[nH]c(=O)c3ccccc23)ccc1F)N1CCN(C(=O)C2CC2)CC1 [olaparib],"Bulk Brain Homogenate Avg, adjusted free concentration",[1]; BM mice,2 ng/g
same,"Bulk Brain Homogenate Avg, total concentration",[1]; BM mice,11 ng/g
same,"Bulk Brain Homogenate Avg, adjusted free concentration",[1]; Control mice,2 ng/g
same,"Bulk Brain Homogenate Avg, total concentration",[1]; Control mice,12 ng/g
same,"Kp, uu Brain","[1]; Control mice, from bulk brain homogenate and terminal plasma free concentrations",0.02
same,Kp uu at 2 h post final dose,"[1]; female, CrTac:NCr-Foxnlnu, mouse, oral, BM mice, from bulk brain homogenate and terminal plasma free concentrations",0.03
same,concentration at 2 h,"[1]; female, CrTac:NCr-Foxnlnu, mouse, oral, BM (brain metastases) mice",254 ng/mL
same,concentration at 2 h,"[1]; female, CrTac:NCr-Foxnlnu, mouse, oral, Control mice",322 ng/mL
same,"MALDI IMS Brain Section Average, total concentration",[2]; Monkey 1,BLQ
same,"Pre-Dose Plasma, total concentration","[2]; Monkey 1, Day 1, po daily 5 days, niraparib 6 mg/kg, olaparib 10 mg/kg",BQL
same,"Pre-Dose Plasma, adjusted free concentration","[2]; Monkey 1, Day 2",8 ng/mL
same,"Pre-Dose Plasma, total concentration","[2]; Monkey 1, Day 2",27 ng/mL
same,"Pre-Dose Plasma, adjusted free concentration","[2]; Monkey 1, Day 3",8 ng/mL
same,"Pre-Dose Plasma, total concentration","[2]; Monkey 1, Day 3",26 ng/mL
same,"Pre-Dose Plasma, adjusted free concentration","[2]; Monkey 1, Day 4",10 ng/mL
same,"Pre-Dose Plasma, total concentration","[2]; Monkey 1, Day 4",33 ng/mL
same,"Pre-Dose Plasma, adjusted free concentration","[2]; Monkey 1, Day 5",(10) ng/mL
same,"Pre-Dose Plasma, total concentration","[2]; Monkey 1, Day 5",33 ng/mL
same,"Bulk Brain Homogenate, adjusted free concentration",[2]; Monkey 1,(2) ng/g
same,"Bulk Brain Homogenate, total concentration",[2]; Monkey 1,12 ng/g
same,Terminal CSF,[2]; Monkey 1,13 ng/mL
same,"Terminal Plasma, adjusted free concentration",[2]; Monkey 1,(99) ng/mL
same,"Kp, uu Brain/Plasma",[2]; Monkey 1,0.02
same,"MALDI IMS Brain Section Average, total concentration",[2]; Monkey 2,BLQ
same,"Pre-Dose Plasma, total concentration","[2]; Monkey 2, Day 1, po daily 5 days, niraparib 6 mg/kg, olaparib 10 mg/kg",BQL
same,"Pre-Dose Plasma, adjusted free concentration","[2]; Monkey 2, Day 2",16 ng/mL
same,"Pre-Dose Plasma, total concentration","[2]; Monkey 2, Day 2",51 ng/mL
same,"Pre-Dose Plasma, adjusted free concentration","[2]; Monkey 2, Day 3",5 ng/mL
same,"Pre-Dose Plasma, total concentration","[2]; Monkey 2, Day 3",17 ng/mL
same,"Pre-Dose Plasma, adjusted free concentration","[2]; Monkey 2, Day 4",16 ng/mL
same,"Pre-Dose Plasma, total concentration","[2]; Monkey 2, Day 4",53 ng/mL
same,"Pre-Dose Plasma, adjusted free concentration","[2]; Monkey 2, Day 5",(14) ng/mL
same,"Pre-Dose Plasma, total concentration","[2]; Monkey 2, Day 5",45 ng/mL
same,"Bulk Brain Homogenate, adjusted free concentration",[2]; Monkey 2,(2) ng/g
same,"Bulk Brain Homogenate, total concentration",[2]; Monkey 2,11 ng/g
same,Terminal CSF,[2]; Monkey 2,6 ng/mL
same,"Terminal Plasma, adjusted free concentration",[2]; Monkey 2,(78) ng/mL
same,"Kp, uu Brain/Plasma",[2]; Monkey 2,0.03
same,detection and distribution in coronal brain sections by MALDI IMS,"[2]; healthy Rhesus macaque monkeys, five days oral administration",not detected
same,"Mean Kp, uu Brain/Plasma",[2]; mean of Monkey 1 and 2,0.02
